# According to patent US20240277743A1, “RESTORING PHYSIOLOGY WITH SMALL MOLECULE MIMICS OF MISSING PROTEINS” (The Board of Trustees Of The University Of Illinois, priority 2014, published 2024):
# Experiments:
# Format in all cases: cell-based, Saccharomyces cerevisiae
# trk1Δtrk2Δ yeast = test: Functional complementation of a protein with a small molecule assay (rescue broth microdilution)
# Source text: Broth microdilution minimum inhibitory concentration (MIC) assay. The protocol for the MIC broth microdilution assay was adapted from the Clinical and Laboratory Standards Institute document M27-A2 and performed as previously described. Gray, K. C. et. al. Proc. Natl. Acad. Sci. U.S.A. 109, 2234-2239 (2012); Palacios, D. S. et al. J. Am. Chem. Soc. 129, 13804-13805 (2007).
# Functional complementation of a protein with a small molecule assay. The protocol for the rescue broth microdilution assay was conducted as described in the MIC assay above with the following additions: trk1atrk2Δ yeast were grown in high potassium (100 mM) YPAD liquid media overnight and transferred to normal potassium YPAD liquid media containing vehicle or the indicated concentration of AmB.
# trk1Δtrk2Δ cells [1] = test: 86Rb+ uptake assay; details: 3 μM; FIG. 2F
# Experimental: ^86Rb^+ uptake assay. The procedure for 86Rb uptake was adapted from Mulet, J. M. et al. Mol. Cell. Biol. 19, 3328-3337 (1999). Overnight yeast cultures were grown as described above. The supernatant was poured off, and the cells were resuspended in sterile water. This wash was repeated two more times. The cells were then resuspended in 40 mL of the potassium starvation/uptake buffer (50 mM succinic acid, 2% glucose, adjusted to pH 5.5 with Tris). After 3 hour incubation in the potassium starvation buffer, cells were centrifuged and washed twice with sterile water. Cells were resuspended in 1 mL of the potassium starvation/uptake buffer. Cell concentration was determined using an INCYTO®; Neubauer disposable hemocytometer, and wild type S. cerevisiae and trk1Δtrk2Δ cells were diluted to the same cell density. 700 μL of the yeast suspension was added to a 1.5 mL Eppendorf tube. After a 5 minute pre-incubation in the potassium starvation/uptake medium, AmB or C35deOAmB was added (final concentration 3 μM) as a DMSO solution. ^86RbCl (1.1 μCi) was then added to the reaction mixtures. Reaction mixtures were vortexed to ensure a homogeneous solution. […] Moist filters were transferred to plastic vials for measuring radioactivity. Radioactivity was monitored using a Perkin Elmer Wizard automatic gamma counter. […]
# trk1Δtrk2Δ cells [2] = test: Cell viability assay (propidium iodide staining); details: 125 nM AmB, 24 hours, FIG. 2H
# Experimental: Cell viability assay. WT and trk1 Δtrk2Δ cells were inoculated in high potassium (100 mM KCl) YPAD. Starter cultures were grown at 30° ° C. for 14-15 hours. Cells were then cultured in high potassium YPAD at 30° ° C. for 2-2.5 hours. 100 μL of a 0.25 mg/mL propidium iodide (PI. Sigma-Aldrich P4864) solution was prepared. After 2-2.5 hours, cells were centrifuged at 800 g for 5 minutes, at 23° C. The supernatant was decanted, cells were resuspended in 40 mL of high potassium YPAD, vortexed, and centrifuged. The wash step was repeated. After pouring off the supernatant, cells were resuspended in 15 mL of high potassium YPAD, vortexed, and diluted to an OD600 of 0.5. To set one (WT, WT+PI, trk1Δtrk2Δ, and trk1Δtrk2Δ+PI) and set two (WT+PI+AmB, trk1 Δtrk2Δ+PI+AmB), 26.4 μL of DMSO were added to 1 mL aliquots of WT and trk1Δtrk2Δ, and incubated at 30° C. for 30 minutes. A 1% w/v low gelling temperature agarose (Sigma-Aldrich A9414) was prepared in normal potassium (10 mM) YPAD. When set one incubation completed, cells were pulse centrifuged, supernatant was removed, and resuspended in normal potassium YPAD to wash. […] The total number of PI stained cells was subtracted from the total cells recorded, and divided by total cells to give % viability. At least 200 cells were recorded per treatment group and 4 independent sets of data were obtained.
# [3] = test system: small molecule-rescued trk1Δtrk2Δ cells versus wild type; test: Probing sensitivities to known chemical inhibitors assay; details: FIG. 3E legend
# Experimental: Probing sensitivities to known chemical inhibitors assay. Overnight cultures were grown as described in the MIC assay. Prior to harvesting cells, small molecules AmB, nystatin A1 (Riedel-de-Haen), candicidin (TOKU-E), or mepartricin (Santa Cruz Biotechnology) and chemical inhibitors nocodazole (Sigma-Aldrich), ebselen (Cayman Chemical), or bafilomycin BI (Santa Cruz Biotechnology were prepared as stock solutions in DMSO. Saturated cell cultures were centrifuged for 5 minutes at 1000×g. The supernatant was poured off, and cells were resuspended in sterile MilliQ water. Cells were centrifuged again, and supernatant was poured off. The wash step was repeated. The supernatant was poured off, and cells were resuspended in normal potassium YPAD. Cells were diluted with normal potassium YPAD to an OD600 of 0.01. Next, an appropriate volume of AmB, nystatin A1, candicidin, or mepartricin was added to give a final rescuing concentration of 125 nM, 1000 nM, 8 nM, and 8 nM, respectively. A control was prepared by adding the corresponding volume of DMSO to trk1Δtrk2Δ cells. 195 μL of WT+small molecule, 195 μL of trk1Δtrk2Δ+small molecule, and 195 μL of trk1Δtrk2Δ+DMSO were added to a 96 well plate. Next, 5 μL of DMSO or chemical inhibitor was added to each well, with each concentration tested in triplicate for both WT and trk1Δtrk2Δ . The plate was covered and incubated at 30° C. for 24 hours. A BioTek Synergy H1 Hybrid Reader was used to measure the OD600. Utilizing GraphPad PRISM, data were fitted by nonlinear regression, inhibition dose response, variable slope (four parameters) to yield EC50 values with SEM. For statistical analysis, EC50 values from the two treatment groups were compared by unpaired t-test.
structure (smiles),measurement,setting,value
"C[C@@H]1[C@H](O)[C@@H](C)/C=C/C=C/C=C/C=C/C=C/C=C/C=C/[C@H](O[C@@H]2O[C@H](C)[C@@H](O)[C@H](N)[C@@H]2O)C[C@@H]2O[C@](O)(C[C@@H](O)C[C@@H](O)[C@H](O)CC[C@@H](O)C[C@@H](O)CC(=O)O[C@H]1C)C[C@H](O)[C@H]2C(=O)O [AmB, amphotericin B]",trk1Δtrk2Δ yeast cell growth in broth dilution assay,trk1Δtrk2Δ yeast; at or above the minimum inhibitory concentration,no growth
same,trk1Δtrk2Δ yeast cell growth in broth dilution assay,"trk1Δtrk2Δ yeast; intermediate concentrations, normal potassium YPAD, FIG. 2D",dose-dependent increase of growth
same,86Rb+ uptake in trk1Δtrk2Δ cells,trk1Δtrk2Δ cells [1],uptake was restored
same,cell viability of AmB-rescued trk1Δtrk2Δ cells versus wild type,trk1Δtrk2Δ cells [2],Equivalent levels of cell viability
same,optimum rescue concentration for trk1Δtrk2Δ cells,[3],0.5 µM
